This is an account of results in PMC7466753, “An epoxide hydrolase from endophytic Streptomyces shows unique structural features and wide biocatalytic activity” (Acta Crystallographica. Section D, Structural Biology, 2020).

Series [1] addresses T1, B1EPH2 (Streptomyces sp. CBMAI 2042, UniProt A0ACD6BAW7).
T1 construct: gene STAN_0072; ORF in pET-29b(+), E. coli BL21(DE3), nickel IMAC and gel filtration; protomer 37 kDa, hexamer (252 kDa by gel filtration)
The experiment in a line: adrenaline test (periodate back-titration, […] nm). The settings on record: pH 6.0 sodium phosphate; racemic substrate in DMSO. The format is biochemical.

Series [2] concerns the molecule itself. The experiment in a line: crystal structure; X-ray, 2.2 Å, space group P4(1)22; hanging drop, 0.1 M sodium cacodylate pH 6.5, 1 M trisodium citrate, protein 12.5 mg/ml in 50 mM HEPES pH 8.0, 300 mM NaCl; three protomers in the asymmetric unit, hexamer by twofold crystallographic symmetry.

Take `c1ccc(OCC2CO2)cc1` (racemic) [compound 3, phenyl glycidyl ether]: the “% conversion relative to 1,2-cyclohexanediol” value in series [1] was 25%.

B1: B1EPH2, α/β-epoxide hydrolase from Streptomyces sp. CBMAI 2042 (enzyme)
chain: VPQPPTDDPTTPAEKGAVHRLVDTPGGRIHLVEQGTGPLVLLVHGFPESWYSWRHQLPALAAAGYRAAAIDVRGYGRSAKPAATDAYRMLAHVADNTAVVHALGEETATVVGHDWGSPIAANSALLRPDVFTAVGLLSVPYAPRGEHRPTDGFARIGGDEEFYVSYFQAPGRAEAEIERDVRGWLAGFYTGLTGGALTPEEHGRLFFVPPGAHLADRFPTGPLPAWLTEADLDVYSGEFERSGLTGALNRYRNVDRDWEDLAAWHGAPITQPSLFIGGALDASTTWMADALDAYPATLPGLSAAHILEGCGHWIQQERPDEVNRLLTQWLDGLR
notes: B1EPH2, putative α/β-epoxide hydrolase of Streptomyces sp; CBMAI 2042; the text says 344 amino acids; the b1eph2 ORF was amplified from genomic DNA and cloned into pET-29b(+) (plasmid pGTEPH2); Hexamer by the crystal structure (three protomers in the asymmetric unit, twofold crystallographic symmetry) and by analytical gel filtration; they are surmised from pET-29b(+) and the nickel column; also …
Take B1: in series [2], the stoichiometry N – broadly, the number of molecules, sites or subunits per partner or assembly – was 6.
